Assay results: article PMC8296573, “Synthesis and Biological Evaluation of Fingolimod Derivatives as Antibacterial Agents” (ACS Omega, 2021)
Values after ≈ are worked out from the molar mass of the structure shown. Where two headings read alike, the source gives them in different places.

How the values were obtained:
[1] = test system: S. aureus ATCC 25923; experiment: Antibacterial activity, pre-exposure (planktonic cells and biofilm formation); assay type: cell-based, Staphylococcus aureus; conditions: for MIC / inhibition at 5 µM / inhibition at 10 µM / inhibition at 15 µM / inhibition at 25 µM: Staphylococcus aureus, ATCC25923; for inhibition at 5 µM / inhibition at 10 µM / inhibition at 15 µM / inhibition at 25 µM / Average inhibition %, biofilms viability / Average inhibition %, planktonic cells viability: pre-exposure, ± SD
Outline: (§1)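 Pre-exposure format: compound and bacterial culture co-incubated 18 h, 37 °C, aerobic, 220 rpm. Planktonic: turbidity (OD) plus resazurin viability, 20 μM final. Biofilm: PBS wash, 20 μM resazurin, then ethanol fixation and crystal violet staining, A595.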

[2] = test system: S. aureus ATCC 25923; experiment: Antibacterial activity, post-exposure on preformed 18-h-old biofilms; assay type: cell-based, Staphylococcus aureus; conditions: ± SD; for inhibition at 25 µM / inhibition at 50 µM / inhibition at 100 µM / inhibition at 200 µM: Staphylococcus aureus; for inhibition at 25 µM: ATCC25923, 25 µM; for inhibition at 50 µM: ATCC25923, 50 µM; for inhibition at 100 µM: ATCC25923, 100 µM; for inhibition at 200 µM: ATCC25923, 200 µM
Outline: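 Compounds were applied to preformed 18-h biofilms after medium change and left 24 h. Read-outs: planktonic OD plus resazurin fluorescence (20 μM), biofilm metabolic activity by resazurin 30 min at 37 °C, then biomass by crystal violet absorbance at 595 nm after ethanol fixation.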

[3] = test system: A. baumannii NCTC 13423; experiment: Antibacterial activity, pre-exposure; assay type: cell-based, Acinetobacter baumannii; conditions: for Average inhibition %, biofilms viability / Average inhibition %, planktonic cells viability / inhibition at 10 µM / inhibition at 15 µM / inhibition at 25 µM / inhibition at 50 µM: A. baumannii NCTC 13423, pre-exposure, ± SD; for inhibition at 10 µM / inhibition at 15 µM / inhibition at 25 µM / inhibition at 50 µM: Acinetobacter baumannii, NCTC13423
Outline: as §1

[4] = test system: P. aeruginosa ATCC 9027; experiment: Antibacterial activity, pre-exposure; assay type: cell-based, Pseudomonas aeruginosa; conditions: for Average inhibition %, biofilms viability / Average inhibition %, planktonic cells viability / inhibition at 50 µM / inhibition at 100 µM / inhibition at 150 µM / inhibition at 200 µM: P. aeruginosa ATCC 9027, pre-exposure, ± SD; for inhibition at 50 µM / inhibition at 100 µM / inhibition at 150 µM / inhibition at 200 µM: Pseudomonas aeruginosa, ATCC9027
Outline: as §1

[5] = 10 µM, read-out: Average inhibition %, biofilms biomass
[6] = 10 µM, read-out: Average inhibition %, planktonic cells turbidity
[7] = 15 µM, read-out: Average inhibition %, biofilms biomass
[8] = 15 µM, read-out: Average inhibition %, planktonic cells turbidity
[9] = 25 µM, read-out: Average inhibition %, biofilms biomass
[10] = 25 µM, read-out: Average inhibition %, planktonic cells turbidity
[11] = read-out: Average inhibition %, biofilms biomass
[12] = read-out: Average inhibition %, planktonic cells turbidity
[13] = 50 µM, read-out: Average inhibition %, biofilms biomass
[14] = 50 µM, read-out: Average inhibition %, planktonic cells turbidity

MIC ([1]; lowest concentration with no visible growth (>90% inhibition of turbidity and viability of planktonic cells), 18 h, read-out: MIC S. aureus ATCC 25923): 50 to 100 µM (≈ 17.6 to 35.2 µg/mL)
MIC ([1]; read-out: MIC (S. aureus)): 50 to 100 µM (≈ 17.6 to 35.2 µg/mL)
MIC A. baumannii NCTC 13423 ([3]; pre-exposure, Inactive = no activity up to 50 μM, > = some inhibition but no MIC reached): Inactive
MIC P. aeruginosa ATCC 9027 ([4]; pre-exposure, Inactive = no activity up to 200 μM, > = some inhibition but no MIC reached): Inactive
Structure (SMILES): CCCCCCCCCCOc1ccc(CCC(N)(CO)CO)cc1 [Compound 49, 2-Amino-2-[4-(decyloxy)phenethyl]propane-1,3-diol]
inhibition at 5 µM ([1]; 5 µM, read-out: Average inhibition %, biofilms biomass): 21.1 ± 15.7%
inhibition at 5 µM ([1]; 5 µM, read-out: Average inhibition %, planktonic cells turbidity): 25 ± 31.1%
inhibition at 10 µM [1, 5]: 24.7 ± 21.7%
inhibition at 10 µM [1, 6]: 40.2 ± 21.5%
inhibition at 15 µM [1, 7]: 42.1 ± 13.8%
inhibition at 15 µM [1, 8]: 32.7 ± 33.7%
inhibition at 25 µM [1, 9]: 65 ± 8%
inhibition at 25 µM [1, 10]: 52 ± 35.7%
Average inhibition %, biofilms viability ([1]; 5 µM): 21.8 ± 13.4%
Average inhibition %, planktonic cells viability ([1]; 5 µM): 5.8 ± 6.5%
Average inhibition %, biofilms viability ([1]; 10 µM): 19.2 ± 19.6%
Average inhibition %, planktonic cells viability ([1]; 10 µM): 16 ± 20.8%
Average inhibition %, biofilms viability ([1]; 15 µM): 34.9 ± 12.5%
Average inhibition %, planktonic cells viability ([1]; 15 µM): 6.5 ± 7.4%
Average inhibition %, biofilms viability ([1]; 25 µM): 46.4 ± 5.4%
Average inhibition %, planktonic cells viability ([1]; 25 µM): 34.4 ± 41.1%
Average inhibition %, biofilms viability ([2]; 25 µM): 23.1 ± 12%
Average inhibition %, planktonic cells viability ([2]; 25 µM): 0 ± 0%
Average inhibition %, biofilms viability ([2]; 50 µM): 31.6 ± 11.1%
Average inhibition %, planktonic cells viability ([2]; 50 µM): 0 ± 0%
Average inhibition %, biofilms viability ([2]; 100 µM): 30.4 ± 13.1%
Average inhibition %, planktonic cells viability ([2]; 100 µM): 6 ± 10.4%
Average inhibition %, biofilms viability ([2]; 200 µM): 18.9 ± 12.3%
Average inhibition %, planktonic cells viability ([2]; 200 µM): 24.6 ± 9.6%
inhibition at 25 µM [2, 11]: 46.2 ± 2.6%
inhibition at 25 µM [2, 12]: 1 ± 1.8%
inhibition at 50 µM [2, 11]: 41.6 ± 16.2%
inhibition at 50 µM [2, 12]: 6.6 ± 6.1%
inhibition at 100 µM [2, 11]: 47.3 ± 10.1%
inhibition at 100 µM [2, 12]: 18.3 ± 26.2%
inhibition at 200 µM [2, 11]: 41.4 ± 16.7%
inhibition at 200 µM [2, 12]: 45 ± 23.1%
Average inhibition %, biofilms viability ([3]; 10 µM): 0 ± 0%
Average inhibition %, planktonic cells viability ([3]; 10 µM): 12 ± 4.3%
Average inhibition %, biofilms viability ([3]; 15 µM): 0 ± 0%
Average inhibition %, planktonic cells viability ([3]; 15 µM): 8.5 ± 10.6%
Average inhibition %, biofilms viability ([3]; 25 µM): 0 ± 0%
Average inhibition %, planktonic cells viability ([3]; 25 µM): 2.6 ± 4.5%
Average inhibition %, biofilms viability ([3]; 50 µM): 9 ± 8.3%
Average inhibition %, planktonic cells viability ([3]; 50 µM): 0 ± 0%
inhibition at 10 µM [3, 5]: 0%
inhibition at 10 µM [3, 6]: 0%
inhibition at 15 µM [3, 7]: 1.5 ± 2.4%
inhibition at 15 µM [3, 8]: 0%
inhibition at 25 µM [3, 9]: 1.1 ± 1.9%
inhibition at 25 µM [3, 10]: 0%
inhibition at 50 µM [3, 13]: 4.1 ± 7.2%
inhibition at 50 µM [3, 14]: 1.2 ± 2.1%
Average inhibition %, biofilms viability ([4]; 50 µM): 1.1 ± 1%
Average inhibition %, planktonic cells viability ([4]; 50 µM): 11.2 ± 5%
Average inhibition %, biofilms viability ([4]; 100 µM): 1.4 ± 1.7%
Average inhibition %, planktonic cells viability ([4]; 100 µM): 11 ± 9.5%
Average inhibition %, biofilms viability ([4]; 150 µM): 1.8 ± 2.2%
Average inhibition %, planktonic cells viability ([4]; 150 µM): 10.3 ± 10.8%
Average inhibition %, biofilms viability ([4]; 200 µM): 4.2 ± 7.4%
Average inhibition %, planktonic cells viability ([4]; 200 µM): 8.8 ± 10.7%
inhibition at 50 µM [4, 13]: 5.1 ± 7.7%
inhibition at 50 µM [4, 14]: 11.2 ± 9.7%
inhibition at 100 µM ([4]; 100 µM, read-out: Average inhibition %, biofilms biomass): 2.5 ± 1.1%
inhibition at 100 µM ([4]; 100 µM, read-out: Average inhibition %, planktonic cells turbidity): 19.8 ± 7.4%
inhibition at 150 µM ([4]; 150 µM, read-out: Average inhibition %, biofilms biomass): 2.8 ± 4.2%
inhibition at 150 µM ([4]; 150 µM, read-out: Average inhibition %, planktonic cells turbidity): 11.4 ± 10.1%
inhibition at 200 µM ([4]; 200 µM, read-out: Average inhibition %, biofilms biomass): 2.2 ± 2.8%
inhibition at 200 µM ([4]; 200 µM, read-out: Average inhibition %, planktonic cells turbidity): 16.7 ± 3%
